Experimental data reported in US20120015965A1, “PHARMACEUTICAL COMPOSITION COMPRISING N-[3-CHLORO-4-[(3-FLUOROPHENYL)METHOXY] PHENYL]-6-[5[[[2-(METHYLSULFONYL) ETHYL]AMINO]METHYL]-2-FURYL]-4- QUINAZOLINAMINE” (Ratiopharm GmbH, priority 2008, published 2012).

Experiment: Wetting angle (contact angle) of the API by goniometer
Type: physicochemical
Details: advancing contact angle, water, 22° C., about 34% RH; accuracy about ±2°; ditosylate monohydrate
Procedure: Alternatively, the above described necessities can be complied with if the active pharmaceutical ingredient used in the preparation of the pharmaceutical composition has a low wetting angle (also: contact angle). The contact angle is a measure of the wettability, that is the lower the contact angle of a given substance, the better it's wettability. Preferably, the wetting angle is below 55°, preferably below 50° and most preferred below 47°. The wetting angle can be measured according to standard methods known in the art, e.g. by means of a goniometer. For this measurement 0.3 g of API is compressed using a KBr press (2000 kg for 2 minutes) to a moulding with a diameter of 1.25 cm. The sample is stored at 100% RH and placed on a glass frit that is kept in contact with water (Millipore quality) one hour prior to the measurement. The wetting angle is then measured on an OCA40, Dataphysics Instruments GmbH, Filderstadt, at 22° C. and about 34% RH at three different sample positions and at different drop sites (3-5 μl of water, Millipore quality) by a static measurement of advancing and receding contact angles via drop contour analysis using ellipse fit (SCA 20, Dataphysics Instruments GmbH, Filderstadt). The wetting angle is defined as the advancing contact angle. The accuracy of measurement is about ±2°.

| contact angle | Substance |
| --- | --- |
| 45 ° | Lapatinib ditosylate monohydrate [API used in examples 3 to 5] |
| 56 ° | Lapatinib ditosylate monohydrate [API used in examples 1 and 2] |
